For experiment [1], the system named is C57BL/6 male mice on CDAHFD diet. As to the kind of experiment: In vivo NASH model, treatment phase (8 weeks CDAHFD, then 2 weeks daily gavage). The following applies: for Fatty deposits / fat globules in liver, H&E staining: 200 mg/kg/day. The method, then:
Liver Inflammatory Cells. CD11b stains macrophages and microglia. CD11b staining of liver tissue was taken after 10 weeks of CDAHFD in three groups of mice. […] At 8 weeks, treatment group 2 (“C2”) mice started gavage feeding with D2-Cystamine at 200 mg/kg/day once daily gavage, and treatment group 3 (“C3”) mice received D4-Cystamine at 200 mg/kg/day by once daily gavage.
In vivo NASH Models. NASH models from normal C57BL/6 male mice on CDAHFD diet (choline deficient, L-amino acid defined, high fat diet with restricted amount of methionine) were used. Two deuterated cystamine molecules were tested:
Two phase study was performed: (1) A prevention and (2) a treatment phase. 48 Mice were separated into nine groups of mice as described below. Histology at end of each study was performed looking for specific features of NASH (steatohepatitis, ballooning, fibrosis). The primary endpoint was plasma ALT measurement. Gene expression studies for fibrosis, inflammation were also performed.
Prevention Phase. Group 1: Control mice on CDAHFD for 8 weeks. Blood drawn at 0, 4, and 8 weeks. Group 2: Mice on CDAHFD plus D2 at 200 mg/kg/day for 8 weeks. Blood drawn at 0, 4, and 8 weeks. Group 3: Mice on CDAHFD plus D4 at 200 mg/kg/day for 8 weeks. Blood drawn at 0, 4, and 8 weeks. Group 4: Control mice (n=4) continue on CDAHFD for 2 weeks. Blood at baseline and at 2 weeks. Liver histology at 2 weeks. Group 5: Mice (n=4) on CDAHFD for 2 weeks plus D2 at 200 mg/kg/day administered via daily gavage. Blood at 0 and 2 weeks and histology at 2 weeks. Group 6: Mice (n=4) on CDAHFD for 2 weeks plus D4 at 200 mg/kg/day administered via daily gavage. Blood at 0 and 2 weeks and histology at 2 weeks.
Treatment Study Results. Groups 4, 5 and 6 mice received 8 weeks of CDAHDF diet before beginning treatment with deuterated compounds of the disclosure. During the treatment phase the mice continued to receive CDAHDF diet. Four mice were set in each group: control (C1) not receiving any drug; treatment (C2) receiving 200 mg/kg of cystamine D2 by once daily gavage; and treatment (C3) receiving 200 mg/kg cystamine D4 by once daily gavage.

Experiment [2] concerns cystinotic fibroblasts. As to the kind of experiment: Cystine re-accumulation after washout in cystinotic fibroblasts. The note with it: 100 uM for 3 h, then drug-free media up to 17 h; vs cystamine. In kind it is cell-based, human. As to the method: (§1) In vitro experiments with isotopically enriched cystamine in cystinotic fibroblasts. Fibroblasts from a de-identified cystinotic patient were split 3× from 2 plates into 36 plates. Three different drugs were used for the experiments: cystamine (non-labeled), d2-cystamine, and d4-cystamine. There were two time series for each drug. The first was with constant drug incubation and included: 0, 10 min, 30 min, 1 h, 3 h, and 5 h. The other series included a washout after 3 h drug incubation, using fresh media following a PBS wash, and included the timepoints: 0, 30 min, 1 h, 3 h, 5 h, and 17 h. A direct quench and extraction technique were used for harvesting all cells to minimize further oxidation and metabolism. This included 2× washes with PBS that included 5 mM N-ethylmaleimide for trapping free thiol groups, and then scraping the plates with an acidified organic solvent extraction solution containing both d4-cystine and d4-cysteamine (plus d-8 cystamine) as internal standards. All samples were run on an API 4500 triple quadrupole LC-MS/MS, with selective reaction monitoring (SRM/MRM) for the following compounds of interest: cystine, NEM-cysteamine, NEM-cysteine, cystamine, and 2-(methylthio)ethylamine. All data fit well to single exponential curves (either decay or association), except where mentioned.
Cystine measurement after washout: Fibroblast cultures were exposed to 100 uM cystamine/d2-cystamine/d4-cystamine for 3 h. Following incubation, cells were washed with PBS, and then incubated with regular media (containing FBS) for the following timepoints: 0 min, 30 min, 1 h, 3 h, 5 h, and 17 h. Cells were harvested identically as described previously.
Fibroblasts from a de-identified cystinotic patient were split 3× from 2 plates into 18 plates. Two different drugs were used for the experiments: D4n-cystamine, and D8-cystamine. There were two time series for each drug. The first was with constant drug incubation and included: 0, 15 min, 30 min, 1 hr, and 3 hr. The other series included a washout after 3 hours of drug incubation, using fresh media following a PBS wash, and included the time-points: 0, 1 hr, 3 hr, and 16 hr. A direct quench and extraction technique was used for harvesting all cells to minimize further oxidation and metabolism. […] All samples were run on an API 4500 triple quadruple LC-MS/MS, with selective reaction monitoring (SRM/MRM) for the following compounds of interest: cystine, NEM-cysteamine, NEM-cysteine, and cystamine. All data fit well to single exponential curves (either decay or association), except where mentioned.
Fibroblast cultures were exposed to 50 μM cystamine (D8 or D4n) for 3 hours. Following incubation, cells were washed with PBS and then incubated with regular mediate containing FBS for 1 h, 3 h, and 16 h. Cells were harvested as above. […] Cystine reaccumulation between D4n-cystamine and D8-cystamine are very similar, indicating similar levels of drug remaining during the washout timepoints (FIG. 15).

The test system of experiment [3] is cystinotic fibroblasts. Description: Intracellular NEM-cysteamine, NEM-cysteine, cystamine and mixed disulfide levels in cystinotic fibroblasts. It is filed as cell-based, human. The note with it: washout period. The method, then: as §1
NEM-cysteamine and NEM-cysteine during constant incubation. Fibroblast cultures were exposed to drug (either cystamine, d2-cystamine, or d4-cystamine) and harvested as described on page 2 for the cystine depletion curve. NEM-cysteamine (or NEM-d1-cysteamine or NEM-d2-cysteamine) was measured for each respective plate and normalized against the signal for d4-cystine.
NEM-cysteamine during washout. Fibroblast cultures were exposed to drug (either cystamine, d2-cystamine, or d4-cystamine) for 3 h were then exposed to media for various timepoints and harvested as previously described.
NEM-cysteine during washout. Fibroblast cultures were exposed to drug (either cystamine, d2-cystamine, or d4-cystamine) for 3 h were then exposed to media for various timepoints and harvested as previously described.
Cystamine during constant drug incubation. Fibroblast cultures were exposed to drug (either cystamine, d2-cystamine, or d4-cystamine) for various timepoints following harvesting as described earlier. Cystamine could be measured in the non-labeled cystamine incubation as well as the d4-cystamine incubation. d2-cystamine could not be accurately measured due to a strong background interference signal corresponding to that mass. No cystamine could be measured in the washout experiments.

Setting [4] is: 200 mg/kg once daily gavage, 2 weeks.

Consider `[2H]C([2H])(CN)SSC([2H])([2H])CN` [D4-Cystamine, 2,2′-disulfanediylbis(ethan-2,2-d2-1-aminium) chloride], for which the “ALT versus untreated control group” value in experiment [1] (setting [4]) was “significantly lower”. Also, the “Ratio of body weight to liver weight (BW/LW) at end of study versus control” value in experiment [1] (setting [4]) is listed as “statistically significant”. Also, the “Hepatic fibrosis, Sirius Red staining of liver sections” value in experiment [1] (200 mg/kg once daily gavage, 2 weeks, listed as D4) is “significant reduction in the amount of positive liver staining”; in experiment [1] (200 mg/kg once daily gavage, 2 weeks, listed as cystamine D4), “very significant reduction in hepatic fibrosis”. Moreover, in experiment [1] (200 mg/kg/day once daily gavage, 2 weeks), the “Number of CD11b positive cells in liver tissue versus control group” value is given as “statistically significant reduction”. Further, the “Fatty deposits / fat globules in liver, H&E staining” value is given as “reduction in fatty globules” in experiment [1] (2 weeks) and “reduced fatty deposits compared to control” in experiment [1] (2 weeks, listed as D4). For the same compound, the “Pericentral fibrosis in liver” value in experiment [1] (Sirius Red staining, 2 weeks) is “less pericentral fibrosis”. Moreover, in experiment [1] (liver, 2 weeks of treatment), the “Collagen 1 expression, qPCR, versus control” value is reported as “significant reduction”. Moreover, in experiment [2], the “Cystine re-accumulation after washout, comparison in words” value is “very similar”. Moreover, the “NEM-cysteine level after 3 h incubation and washout” value in experiment [3] was “rise and increase”.

These data come from US12391643B2, “Substituted amino-thiol and amino-disulfide compounds, and uses thereof” (The Regents of the University of California, priority 2019, dated 2025).
